Results on 21 molecules are retold here after patent US20140107109A1, “AMINO-DIHYDROTHIAZINE AND AMINO-DIOXIDO DIHYDROTHIAZINE COMPOUNDS AS BETA-SECRETASE ANTAGONISTS AND METHODS OF USE” (Amgen Inc., priority 2012, published 2014).

As a reminder, the IC50 is the point on the concentration scale where inhibition reaches its midpoint.

SMILES strings stand for the structures. Where two headings read alike, the source gives them in different places.

Experiment [1] deals with Aβ40 in conditioned medium of cells stably expressing Amyloid Precursor Protein (APP). Briefly: In vitro BACE cell-based assay (HEK cell assay), Aβ40 sandwich ELISA. The following applies: Homo sapiens, HEK293. The gist of the method:
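Aβ40 in conditioned medium was quantified by time-resolved fluorescence sandwich ELISA (pAb40 capture 3 h at 4 °C, biotin-6E10 detection 2 h at 4 °C) after 24 h compound exposure of APP-expressing cells. Doses spanned 10 points from 100 μM or 10 μM top, 0.1% DMSO; IC50 was derived from percent of control.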

The target in experiment [2] is Beta Secretase enzyme (BACE1) (Homo sapiens, UniProt P56817). The experiment is described as follows: In vitro enzymatic BACE FRET assay. In kind it is biochemical. The note with it: read-out: BACE1 FRET assay IC50. Summed up: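 Readout: dequenched fluorescence (ex 488 nm/[…]) after neutralizing with Tris buffer. Reactions, begun by adding 50 nM quenched peptide substrate spanning the BACE cleavage site, were incubated one hour at pH 4.2 in 0.05 M acetate with 100 uM genapol and 10% final DMSO.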
Chain of Beta Secretase enzyme (BACE1) (P56817 46-501): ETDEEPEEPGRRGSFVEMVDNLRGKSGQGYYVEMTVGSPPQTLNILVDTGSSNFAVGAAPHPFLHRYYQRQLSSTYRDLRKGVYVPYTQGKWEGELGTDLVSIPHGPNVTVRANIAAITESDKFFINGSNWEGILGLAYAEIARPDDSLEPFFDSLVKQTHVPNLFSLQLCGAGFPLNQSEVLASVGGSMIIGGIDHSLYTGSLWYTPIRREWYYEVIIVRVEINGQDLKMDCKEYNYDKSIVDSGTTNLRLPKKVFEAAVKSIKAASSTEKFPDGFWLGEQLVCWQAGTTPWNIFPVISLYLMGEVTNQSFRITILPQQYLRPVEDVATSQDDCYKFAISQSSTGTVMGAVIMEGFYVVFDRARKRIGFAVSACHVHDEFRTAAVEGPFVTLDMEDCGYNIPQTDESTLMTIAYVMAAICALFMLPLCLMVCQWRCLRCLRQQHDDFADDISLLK

Experiment [3] concerns the target T1, Cathepsin D (Cat D) (Homo sapiens, UniProt P07339).
T1 construct: Recombinant Cat D was expressed in CHO cells; made in house; host or cells: CHO cells
The experiment is described as follows: In vitro enzymatic Cathepsin D (Cat D) FRET assay. In kind it is biochemical. Summed up: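 FRET read-out: a fluorophore/quencher-labelled peptide substrate is cleaved by 9 nM Cat D (recombinant, CHO-expressed) following a one-hour preincubation with inhibitor dilutions in DMSO. Tris buffer added to neutralize pH ends the reaction before fluorescence measurement.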

T1 sequence (P07339 65-412, species assumed): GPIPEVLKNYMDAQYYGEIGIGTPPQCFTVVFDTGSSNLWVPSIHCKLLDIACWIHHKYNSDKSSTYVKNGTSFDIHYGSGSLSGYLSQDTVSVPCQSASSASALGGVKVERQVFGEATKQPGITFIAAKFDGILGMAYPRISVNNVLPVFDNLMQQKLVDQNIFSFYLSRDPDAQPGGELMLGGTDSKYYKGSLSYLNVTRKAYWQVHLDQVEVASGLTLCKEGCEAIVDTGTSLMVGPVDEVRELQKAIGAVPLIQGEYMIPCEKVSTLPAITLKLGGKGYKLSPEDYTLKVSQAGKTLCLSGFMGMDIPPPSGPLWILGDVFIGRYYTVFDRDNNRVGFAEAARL

Turning to `Cc1nc(F)c([C@]2(C)CS(=O)(=O)C(C)(C)C(N)=N2)cc1Br` [Example 184, (R)-5-Amino-3-(5-bromo-2-fluoro-6-methylpyridin-3-yl)-3,6,6-trimethyl-3,6-dihydro-2H-1,4-thiazine 1,1-dioxide], the IC50 in experiment [1] (average IC50, cell assay) is 3990 nM; in experiment [2] (average IC50, enzyme assay), 8110 nM; in experiment [3], 127000 nM.
Consider `Cc1cc(Cl)cnc1C(=O)Nc1cnc(F)c([C@]2(C)CS(=O)(=O)C3(CC3)C(N)=N2)c1` [Example 186, (R)—N-(5-(8-amino-6-methyl-4,4-dioxido-4-thia-7-azaspiro[2.5]oct-7-en-6-yl)-6-fluoropyridin-3-yl)-5-chloro-3-methylpicolinamide], for which the IC50 is 4.3 nM in experiment [1] (average IC50, HEK cells); 2.4 nM in experiment [2] (average IC50); 65700 nM in experiment [3] (read-out: CatD IC50).
Turning to `CC1(C)C(N)=N[C@](C)(c2cc(Br)ccc2F)C2(CC2)S1(=O)=O` [Example 187], the IC50 in experiment [1] (average IC50, HEK cells) is > 15600 nM; in experiment [2] (average IC50) it was 30700 nM; in experiment [3] (read-out: CatD IC50), > 400000 nM.
As for `CC1(C)C(N)=N[C@](C)(c2cc(Nc3ncc(Br)c4cc(Cl)cnc34)ccc2F)CS1(=O)=O` [Example 188, (R)-5-amino-3-(5-((5-bromo-3-chloro-1,7-naphthyridin-8-yl)amino)-2-fluorophenyl)-3,6,6-trimethyl-3,6-dihydro-2H-1,4-thiazine 1,1-dioxide], the 50% inhibitory concentration (IC50) in experiment [1] (average IC50, cell assay) is 59.7 nM; in experiment [2] (average IC50, enzyme assay) it was 0.83 nM; in experiment [3] (read-out: CatD IC50), 213000 nM.
For the molecule `CC1(C)C(N)=N[C@](C)(c2cc(Nc3ncc(C#C[Si](C)(C)C)c4cc(Cl)cnc34)ccc2F)CS1(=O)=O` [Example 189, (R)-5-amino-3-(5-((3-chloro-5-((trimethylsilyl)ethynyl)-1,7-naphthyridin-8-yl)amino)-2-fluorophenyl)-3,6,6-trimethyl-3,6-dihydro-2H-1,4-thiazine 1,1-dioxide], the IC50 in experiment [1] (average IC50, cell assay) was 231 nM; in experiment [2] (average IC50, enzyme assay), 6.8 nM; in experiment [3] (read-out: CatD IC50) it was > 4940 nM.
With `C#Cc1cnc(Nc2ccc(F)c([C@]3(C)CS(=O)(=O)C(C)(C)C(N)=N3)c2)c2ncc(Cl)cc12` [Example 190, (R)-5-amino-3-(5-((3-chloro-5-ethynyl-1,7-naphthyridin-8-yl)amino)-2-fluorophenyl)-3,6,6-trimethyl-3,6-dihydro-2H-1,4-thiazine 1,1-dioxide], the IC50 in experiment [1] (average IC50, cell assay) worked out at 44.8 nM; in experiment [2] (average IC50, enzyme assay), 1.3 nM; in experiment [3] (read-out: CatD IC50), 63900 nM.
In the case of `CC1(C)C(N)=N[C@](C)(c2cc(Nc3ncc(CO)c4cc(Cl)cnc34)ccc2F)CS1(=O)=O` [Example 191, (R)-5-amino-3-(5-((3-chloro-5-(hydroxymethyl)-1,7-naphthyridin-8-yl)-amino)-2-fluorophenyl)-3,6,6-trimethyl-3,6-dihydro-2H-1,4-thiazine 1,1-dioxide], the IC50 in experiment [1] (average IC50, cell assay) was found to be 8.9 nM; in experiment [2] (average IC50, enzyme assay), 4.47 nM; in experiment [3] (read-out: CatD IC50) it was 65000 nM.
For `CC1(C)C(N)=N[C@](C)(c2cc(Nc3ncc(Cl)c4cc(Cl)cnc34)ccc2F)CS1(=O)=O` [Example 192, (R)-5-amino-3-(5-((3,5-dichloro-1,7-naphthyridin-8-yl)amino)-2-fluorophenyl)-3,6,6-trimethyl-3,6-dihydro-2H-1,4-thiazine 1,1-dioxide], in that order: 36.6 nM, 0.7 nM and 32400 nM.
For `CC1(C)C(N)=N[C@](CF)(c2cc(NC(=O)c3ccc(Cl)cn3)ccc2F)CS1(=O)=O` [Example 193, (S)—N-(3-(5-amino-3-(fluoromethyl)-6,6-dimethyl-1,1-dioxido-3,6-dihydro-2H-1,4-thiazin-3-yl)-4-fluorophenyl)-5-chloropicolinamide], the concentration for half-maximal inhibition (IC50) in experiment [1] (average IC50, HEK cells) was 16.1 nM; in experiment [2] (average IC50), 0.76 nM; in experiment [3] (read-out: CatD IC50), 228000 nM.
With `C=C(C)c1cc(Cl)cnc1C(=O)Nc1ccc(F)c([C@]2(C)CS(=O)(=O)C(C)(C)C(N)=N2)c1` [Example 194, (R)—N-(3-(5-amino-3,6,6-trimethyl-1,1-dioxido-3,6-dihydro-2H-1,4-thiazin-3-yl)-4-fluorophenyl)-5-chloro-3-(prop-1-en-2-yl)picolinamide], the IC50 in experiment [1] (average IC50, HEK cell assay) turned out to be 3.42 nM; in experiment [2] (average IC50, enzyme assay), 5.18 nM; in experiment [3] (read-out: CatD IC50), 617000 nM.
As to `C=Cc1cc(Cl)cnc1C(=O)Nc1ccc(F)c([C@]2(C)CS(=O)(=O)C(C)(C)C(N)=N2)c1` [Example 195, (R)—N-(3-(5-amino-3,6,6-trimethyl-1,1-dioxido-3,6-dihydro-2H-1,4-thiazin-3-yl)-4-fluorophenyl)-5-chloro-3-vinylpicolinamide], the IC50 came to 3.9 nM in experiment [1] (average IC50, HEK cell assay); 0.59 nM in experiment [2] (average IC50, enzyme assay); 108000 nM in experiment [3] (read-out: CatD IC50).
For `CCc1cc(Cl)cnc1C(=O)Nc1ccc(F)c([C@]2(C)CS(=O)(=O)C(C)(C)C(N)=N2)c1` [Example 196, (R)—N-(3-(5-amino-3,6,6-trimethyl-1,1-dioxido-3,6-dihydro-2H-1,4-thiazin-3-yl)-4-fluorophenyl)-5-chloro-3-ethylpicolinamide], in that order: 5.4 nM, 1.81 nM and 200000 nM.
For `CCc1cc(Cl)cnc1C(=O)Nc1ccc(F)c([C@]2(CF)CS(=O)(=O)C(C)(C)C(N)=N2)c1` [Example 197, (S)—N-(3-(5-amino-3-(fluoromethyl)-6,6-dimethyl-1,1-dioxido-3,6-dihydro-2H-1,4-thiazin-3-yl)-4-fluorophenyl)-5-chloro-3-ethylpicolinamide], the IC50 in experiment [1] (average IC50, HEK cell assay) was determined as 208 nM; in experiment [2] (average IC50, enzyme assay), 1.46 nM; in experiment [3] (read-out: CatD IC50), 416000 nM.
In the case of `CC(C)c1cc(Cl)cnc1C(=O)Nc1ccc(F)c([C@]2(CF)CS(=O)(=O)C(C)(C)C(N)=N2)c1` [Example 198, (S)—N-(3-(5-amino-3-(fluoromethyl)-6,6-dimethyl-1,1-dioxido-3,6-dihydro-2H-1,4-thiazin-3-yl)-4-fluorophenyl)-5-chloro-3-isopropylpicolinamide 2,2,2-trifluoroacetate], the half-inhibitory concentration (IC50) in experiment [1] (average IC50, HEK cell assay) was found to be 91.4 nM; in experiment [2] (average IC50, enzyme assay), 7.99 nM; in experiment [3] (read-out: CatD IC50), 850000 nM.
Regarding `C[C@@]1(c2cc(NC(=O)c3ccc(Cl)cn3)ccc2F)CS(=O)(=O)C2(CC2)C(N)=N1` [Example 199, N-(3-((6R)-8-amino-6-methyl-4,4-dioxido-4-thia-7-azaspiro[2.5]oct-7-en-6-yl)-4-fluorophenyl)-5-chloro-2-pyridinecarboxamide], the IC50 in experiment [1] (average IC50, HEK cells) is 1.1 nM; in experiment [2] (average IC50) it was 1.9 nM; in experiment [3] (read-out: CatD IC50), 81000 nM.
For `C[C@]1(c2cc(NC(=O)c3ccc(Cl)cn3)ccc2F)N=C(N)C2(CC2)S(=O)(=O)[C@@H]1F` [Example 200, N-(3-((5S,6R)-8-amino-5-fluoro-6-methyl-4,4-dioxido-4-thia-7-azaspiro[2.5]oct-7-en-6-yl)-4-fluorophenyl)-5-chloro-2-pyridinecarboxamide], the IC50 in experiment [1] (average IC50, HEK cells) is 3.9 nM; in experiment [2] (average IC50) it was 1.3 nM; in experiment [3] (read-out: CatD IC50), 55600 nM.
For `C[C@]1(c2cc(NC(=O)c3ccc(Cl)cn3)ccc2F)N=C(N)C2(CC2)S(=O)(=O)[C@H]1F` [Example 201, N-(3-((5R,6R)-8-amino-5-fluoro-6-methyl-4,4-dioxido-4-thia-7-azaspiro[2.5]oct-7-en-6-yl)-4-fluorophenyl)-5-chloro-2-pyridinecarboxamide], in that order: 2 nM, 0.62 nM and 31100 nM.
With `Cc1cc(OC(F)F)cnc1C(=O)Nc1ccc(F)c([C@@]2(C)N=C(N)C3(CC3)S(=O)(=O)[C@@H]2F)c1` [Example 202, N-(3-((5S,6R)-8-amino-5-fluoro-6-methyl-4,4-dioxido-4-thia-7-azaspiro[2.5]oct-7-en-6-yl)-4-fluorophenyl)-5-(difluoromethoxy)-3-methyl-2-pyridinecarboxamide], the IC50 in experiment [1] (average IC50, HEK cells) was 3.6 nM; in experiment [2] (average IC50), 1.5 nM; in experiment [3] (read-out: CatD IC50) it was 96700 nM.
For the molecule `Cc1cc(OC(F)F)cnc1C(=O)Nc1ccc(F)c([C@@]2(C)N=C(N)C3(CC3)S(=O)(=O)[C@H]2F)c1` [Example 203, N-(3-((5R,6R)-8-amino-5-fluoro-6-methyl-4,4-dioxido-4-thia-7-azaspiro[2.5]oct-7-en-6-yl)-4-fluorophenyl)-5-(difluoromethoxy)-3-methyl-2-pyridinecarboxamide], the IC50 was determined as 2.3 nM in experiment [1] (average IC50, HEK cells); 0.48 nM in experiment [2] (average IC50); 30200 nM in experiment [3] (read-out: CatD IC50).
As to `Cc1cc(Cl)cnc1C(=O)Nc1ccc(F)c([C@@]2(C)N=C(N)C3(CC3)S(=O)(=O)[C@@H]2F)c1` [Example 204, N-(3-((5S,6R)-8-amino-5-fluoro-6-methyl-4,4-dioxido-4-thia-7-azaspiro[2.5]oct-7-en-6-yl)-4-fluorophenyl)-5-chloro-3-methylpicolinamide], the values for the IC50 in experiment [1], in experiment [2] and in experiment [3] (read-out: CatD IC50) were 2.7 nM, 0.87 nM and 182000 nM, respectively.
For `Cc1cc(Cl)cnc1C(=O)Nc1ccc(F)c([C@@]2(C)N=C(N)C3(CC3)S(=O)(=O)[C@H]2F)c1` [Example 205, N-(3-((5R,6R)-8-amino-5-fluoro-6-methyl-4,4-dioxido-4-thia-7-azaspiro[2.5]oct-7-en-6-yl)-4-fluorophenyl)-5-chloro-3-methylpicolinamide], in that order: 2.6 nM, 0.44 nM and 28000 nM.
